Source: US10722575B2, “Use of 1,3-diphenylprop-2-en-1-one derivatives for treating liver disorders” (GENFIT, priority 2009, dated 2020)

Experiments:
[1] = system: patients suffering from atherogenic dyslipidaemia and abdominal obesity; experiment: First pilot double-blind placebo-controlled randomized study, Cpd 29 80 mg/day, 28 days; assay type: in vivo, human; conditions: 80 mg/day oral
Protocol: (§1) 1-[4-methylthiophenyl]-3-[3,5-dimethyl-4-carboxydimethylmethyloxyphenyl]prop-2-en-1-one (Cpd 29 of WO 2004/005233) has been formulated as hard shell capsules containing 5, 10 or 20 mg of the compound. The compound (80 mg) was administered orally once daily for 28 days. The study has been performed in two parallel groups in double-blind conditions: placebo or Cpd 29 of WO 2004/005233.
(§2) The tolerability and safety of once-a-day administrations, as well as the efficacy in improving plasma lipids and glucose homeostasis compared with placebo, were evaluated in two pilot trials using relevant biochemical parameters. The data were used to calculate the percentage of change due to the compound when compared to the placebo after 28 days of treatment.
(§3) A first pilot, double-blind, placebo controlled, randomized study has been performed in patients suffering from atherogenic dyslipidaemia and abdominal obesity for assessing the tolerability and safety of once-a-day administrations of oral doses of Cpd 29 of WO 2004/005233 (at the dose of 80 mg/day), as well as the efficacy on plasma triglycerides and HDL-cholesterol (primary objectives).

[2] = system: patients suffering from impaired fasting glucose, impaired glucose tolerance and abdominal obesity; experiment: Second pilot double-blind placebo-controlled randomized study, Cpd 29 80 mg/day, 28 days; assay type: in vivo, human; conditions: 80 mg/day oral
Protocol: as §1, §2
as §3, with “second” for “first”, “impaired fasting glucose, impaired glucose tolerance” for “atherogenic dyslipidaemia”, “glucose” for “plasma triglycerides”, “lipid metabolism.” for “HDL-cholesterol (primary objectives).”

[3] = system: hApoE2 KI/PPARalpha KO mice; experiment: hApoE2 KI/PPARalpha KO mice on Western diet, hepatic gene expression by quantitative RT-PCR; assay type: in vivo; conditions: 30 mg/kg/day by gavage, 6 weeks
Protocol: The compounds of the General Formula (I) were tested in vivo in a high fat diet mice model. Dyslipidemic “humanized” hApoE2 KI deficient for PPARalpha were fed a Western diet and treated during 6 weeks. The compounds of interest, including the Compound 29 of WO 2004/005233 at 30 mg/kg/day and the Compound 1 of WO 2007/147879 at 30 mg/kg/day were orally administrated by gavage. At the end of the protocol, animals were sacrificed, livers were harvested and the hepatic expression of relevant genes implicated in the liver inflammation and the fibrosis processes were evaluated by quantitative RT-PCR. In parallel, liver triglycerides contents were evaluated (Panels A-D). Statistical analysis was performed as indicated for FIG. 1.
Animals were fed a Western diet (20% saturated fat and 0.2% cholesterol, Harlan Teklad TD88137) during 2 weeks in the first study, that involved the daily administration of Cpd 29 (at 30 mg/kg/day by oral gavage), and during 6 weeks in the second study, that involved the daily administration of Compound 1 of WO 2007147879 (Cpd1, at 30 mg/kg/day by oral gavage). Control animals were treated with vehicle only (Carboxymethlycellulose 1%+Tween-80 0.1%). Animals had access to food and water ad libitum.
At the end of the studies, the animals were weighed and sacrificed under anesthesia. Blood was collected from the retro-orbital sinus; plasma was obtained by centrifugation (4 000 rpm, at 4° C. for 15 min) and subsequently frozen and stored at −20° C. Tissues and livers were isolated and snap-frozen in liquid nitrogen and stored at −80° C. for subsequent analysis (gene expression and biochemistry) or fixed in 4% paraformaldehyde for histology.
Total RNA was isolated from frozen livers using the NucleoSpin® 96 RNA kit (Macherey Nagel), according to the manufacturer's instructions. Reverse transcription was performed on 1 μg of total RNA by action of 1 μl of MMLV-RT enzyme (Invitrogen) during 1 hour at 37° C. in a total volume of 30 μl. The reaction conditions were 1× buffer (Invitrogen), 1.5 mM DTT (Invitrogen), 0.18 mM dNTPs (Promega), 200 ng pdN6 (Amersham), 30U RNase inhibitor (Promega). Quantitative PCR was then carried out using the MyiQ Single-Color Real-Time PCR Detection System (Biorad). Briefly PCR reactions were performed in 96 well plates on 5 μl of diluted reverse transcription mix using the iQ SYBR Green Supermix kit. The reaction conditions were: 25 μl of volume reaction, 3 mM of MgCl2, and 0.5 μl of each reverse and forward primer solutions (10 pMol), Tm of 60° C.
The quantity of fluorescence emitted is directly proportional to the quantity of complementary DNA present at the start of the reaction and amplified during the PCR. The relative levels of expression were determined using the standard curve for each transcript. The results were then normalized in regard to the signals obtained with the 36B4 control (a reference transcript for hepatic gene expression). The induction factor, i.e. the ratio between the relative signal induced by the compound according to the invention and the average of the values relating to the control group, was then calculated for each sample. The higher this factor, the more the compound promotes target gene expression. The final result is depicted as the average of the induction values in each experimental group.
In another study, the liver-specific anti-inflammatory and anti-fibrotic properties effects of Cpd 29 and Compound 1 of WO 2007/147879 (Cpd 1) were evaluated in the hApoE2 KI/PPARalpha KO mice that were fed a Western diet and daily treated with the selected compounds during 6 weeks.

[4] = relative to the placebo group, p<0.01

1-[4-methylthiophenyl]-3-[3,5-dimethyl-4-carboxydimethylmethyloxyphenyl]prop-2-en-1-one [Cpd 29]
effect on Homocystein (cardiovascular risk factor) [1]: lack of effect
reduction of Gamma Glutamyl transpeptidase level ([1]; p<0.001): 23%
liver acute phase inflammation marker fibrinogen ([1]; p<0.01): reduction
liver acute phase inflammation marker haptoglobin ([1]; p<0.01): reduction
reduction of Alanine aminotransferase level ([1]; p<0.01): 13%
increase in good cholesterol (HDL-C) level [1, 4]: 9%
reduction of plasma triglycerides [1, 4]: 21%
LDL-C [2]: reduced
plasma triglycerides, change relative to placebo ([2]; p<0.001): −25%
HDL-C, change relative to placebo ([2]; p<0.01): +9%
fasting insulinemia, change relative to placebo ([2]; p<0.01): −25%
insulin resistance index, HOMA-IR, change relative to placebo ([2]; p<0.01): −31%
liver acute phase inflammation marker haptoglobin ([2]; p<0.01): reduction
reduction of Gamma Glutamyl transpeptidase level ([2]; p<0.01): 15%
fasting plasma glucose, change relative to placebo ([2]; p<0.05): −5%
liver expression of TNFα ([3]; FIG. 4A): inhibited
liver expression of TGFβ ([3]; FIG. 4B): inhibited
liver expression of collagen ([3]; FIG. 4C): inhibited
